How the values were obtained:
[1] = Stability of lisuride dissolved in water (HPL chromatogram); details: room temperature, FIG. 3A
[2] = tested on: 5-HT2B receptors of pulmonary arteries in pigs; assay: 5-HT-induced, 5-HT2B-mediated relaxing of PGF2α-pre-contracted pulmonary arteries in pigs (functional receptor assay); type: cell-based; details: under physiological conditions; not antagonized by maximum 5-HT concentrations
Source text: (§1) In this case, the pA2 value reflects the negatively decade logarithm of the concentration of an antagonist, which makes it necessary to double the agonist concentration in order to restore the initial effect of the agonist without antagonists.
The vascular reaction in the preparations of pulmonary arteries in pigs, which are pre-contracted by means of PGF2α, were used as an assay for the specific interaction with 5-HT2B receptors (see FIG. 1A). […] Ketanserin is a standard-5HT2A antagonist, SB204741 is a standard-5-HT2B antagonist.

[3] = biological target: T1, 5-HT2A receptors of coronary arteries in pigs (Sus scrofa, UniProt P50129); assay: Inhibition of 5-HT2A-mediated, 5-HT-induced contraction of coronary arteries in pigs; type: cell-based; details: n in own column
T1 construct: 5-HT2A-mediated contraction of the coronary arteries in pigs; from tissue; host or cells: isolated pig coronary artery
T1 sequence (P50129 whole entry): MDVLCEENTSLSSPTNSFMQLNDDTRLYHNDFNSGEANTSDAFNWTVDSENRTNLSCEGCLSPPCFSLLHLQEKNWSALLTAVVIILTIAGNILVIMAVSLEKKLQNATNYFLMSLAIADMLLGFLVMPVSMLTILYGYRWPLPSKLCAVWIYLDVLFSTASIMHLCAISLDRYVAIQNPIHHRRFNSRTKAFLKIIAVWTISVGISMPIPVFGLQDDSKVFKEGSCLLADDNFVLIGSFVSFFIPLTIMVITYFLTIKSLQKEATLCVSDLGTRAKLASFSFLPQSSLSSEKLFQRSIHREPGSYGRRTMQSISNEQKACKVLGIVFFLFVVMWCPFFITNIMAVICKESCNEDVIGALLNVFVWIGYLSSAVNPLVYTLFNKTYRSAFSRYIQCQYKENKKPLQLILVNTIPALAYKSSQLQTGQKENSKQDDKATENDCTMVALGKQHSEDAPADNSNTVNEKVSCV
Source text: as §1

[4] = tested on: Human smooth muscle cells; assay: 5-HT-stimulated cell growth, 3H-thymidine uptake; type: cell-based; details: 10 μmol/l test substance, 5-HT 10-8 mol/l, 24 hours; FIG. 2
Experimental: To determine the cell growth, 3H-thymidine (Amersham) was then added to the cell cultures, and the latter were incubated for 24 hours. After the adhesion of the cells, the culture medium was replaced by a standard medium with 0.2% fetal calf serum to stop growth and incubated again for 48 hours.
In order to test antiproliferative actions of the described substances, the cell cultures were then pre-incubated first at a concentration of 10 μmol/l of the test substances. […] To measure the growth of cells, 3H-thymidine (Amersham) was then added to the cultures, and the latter was incubated for 24 hours. Then, 2 incubations were carried out in iced common salt solution with a phosphate buffer, and then a 30-minute incubation was carried out in iced 10% trichloroacetic acid at 4° C. The cells were then incubated in 0.1 molar NaOH solution (0.5 ml/incubation vessel). After neutralization with acetic acid, the 3H-thymidine uptake was measured with liquid scintillation (as 3× determination).

[5] = tested on: monocrotaline-induced pulmonary high pressure in rats; assay: Monocrotaline-induced pulmonary high pressure in rats; type: in vivo, male Sprague-Dawley rats; details: MCT 60 mg/kg s.c.; treatment bid via stomach tube days 15-28; measured day 28; lisuride 0.25 mg/kg, terguride 2.5 mg/kg; average ± SEM, N = 6
Source text: Monocrotaline (MCT) is a toxin from plants of the Crotalaria species, which damages the endothelial cells of the pulmonary arteries after a single injection in rats, with the following hypertrophy of the smooth vascular musculature and persistent severe pulmonary high pressure. The MCT-induced pulmonary hypertension in rats is a well-established and validated model of human pulmonary hypertension, and all now-approved therapeutic agents have shown an action in this model, at least when they were used before the toxically-induced tissue remodeling.
MCT (60 mg/kg) was administered subcutaneously as a single injection in male Sprague-Dawley rats, and an identical volume of isotonic common salt solution was injected into the control animals. […]
On day 28 of the experiment, two hours after the last administration of substance, the animals were narcotized with use of pentobarbital. […] The mean arterial system pressure and the systolic pressure were measured in the right heart ventricle. […]
The s.c. injection of MCT, as described above, results in severe damage of the pulmonary vascular endothelium as well as excessive production of connective tissue and development of a pulmonary hypertension. Accumulation of collagen, measured as hydroxyproline content of the pulmonary tissue and increase of the right-ventricular systolic pressure reflect the described structural and functional changes.

[6] = tested on: 5-HT-induced effects in rats; details: cited from earlier work
[7] = Antioxidative action / radical trap (binding of oxygen radicals)
Source text: Because of the small amounts of substances contained in the samples and the short life of the reaction products, it was not possible to isolate them for structural clarification.

CCN(CC)C(=O)N[C@H]1C=C2c3cccc4[nH]cc(c34)C[C@H]2N(C)C1 [Lisuride, 3-(9,10-didehydro-6-methylergoline-8alpha-yl)-1,1-diethylurea]
stability dissolved in water [1]: quickly broken down
type of antagonism of the 5-HT2B receptor [2]: irreversible antagonist

CCNC(=O)NC1C=C2c3cccc4[nH]cc(c34)CC2N(C)C1 (stereo not drawn) [N″-Monodesethyllisuride]
5-HT2A pA2 [3]: 8.29 ± 0.03

CCN(CC)C(=O)N[C@H]1C[C@@H]2c3cccc4[nH]cc(c34)C[C@H]2N(C)C1 [Terguride, trans-dihydrolisuride]
cell proliferation (3H-thymidine uptake) [4]: Reduction of cell proliferation
Systolic Right-Ventricular Pressure (RVPsys) [5]: 39 ± 3 mmHG
5-HT-induced weight increase of the heart and liver ([6]; rats [Hauso 2007]): prevented
behavior abnormalities and fibrotic skin changes at the injection sites of 5-HT ([6]; rats [Hauso 2007]): suppressed
development of pulmonary valve failure ([6]; rats, daily 5-HT over 4 months [Hauso 2007]): not detectable
free oxygen radicals taken up by an individual molecule [7]: up to 4

Reference: patent US20140058108A1 (SINOXA PHARMA UG, priority 2010, published 2014)
